Test results published in paper PMC6272646, “Understanding the Physicochemical Properties of Mitragynine, a Principal Alkaloid of Mitragyna speciosa, for Preclinical Evaluation” (Molecules, 2015).
Converted amounts (≈) assume the structure as drawn.

Assays:
[1] = Stability in simulated gastric fluid (SGF, with enzymes); details: for Concentration Found in SGF: SGF pH ~1.2 with pepsin, 37 °C
[2] = In vitro release (dissolution) from capsules filled with mitragynine pure standard; type: physicochemical; details: up to 2 h, capsule, basket method, 50 rpm, 37 °C
Method: Hard shell gelatin capsules filled with mitragynine pure standard were used in the in vitro dissolution study. In order to characterize the release of mitragynine, drug release profile was generated, in which mitragynine release values were determined as a function of time. The US pharmacopoeia I (basket) method was used for the in vitro dissolution study. SGF (pH 1.2) and SIF (pH 6.8) were prepared without enzymes. These media were used for the dissolution study, respectively. The capsule filled with mitragyine was introduced into 500 mL of dissolution medium. The capsule was agitated at 50 rpm at 37 °C. An aliquot (1 mL) of sample was withdrawn at predetermined time intervals of 5, 10, 15, 30, 40, 60, 90 and 120 min after onset of the dissolution. The samples were filtered through 0.45 um PTFE syringe filters, diluted with ACN (1:1) and the drug concentration was determined by the validated RP-HPLC-UV method. Samples were analyzed along with QC samples.

rats = tested on: rats; parameters: method as in Macko et al, 15; details: mitragynine salt solution, ref Macko et al, 15; cited from earlier work
[3] = Equilibrium solubility in water and buffers (HPLC-UV); type: physicochemical
Method: The HPLC system consisted of a Jasco delivery pump (Tokyo, Japan) equipped with autosampler connected to a Waters 2487 detector (Milford, MA, USA) coupled to Jasco Chromnav software (Version 2.0, Tokyo, Japan). Chromatographic separation was performed on a C8 Agilent Eclipse plus (4.6 mm i.d. × 250 mm, 5-μm particle size; Apple Valley, MN, USA). The HPLC-UV method was adapted from our previous study and revalidated for the present HPLC system. The method was employed to quantify mitragynine in partition coefficient, stability, dissolution and solubility studies.
For solubility studies, an excess of mitragynine was added to 1.0 mL each of distilled water or buffers at pH 4, 7 and 9. The test tubes were placed in a water bath shaker at 37 degrees Celsius at 100 cycles/min for 48 h until equilibrium. The samples were centrifuged at 3000 rpm for 5 min and supernatant was taken for quantification of mitragynine by HPLC-UV. For stability studies, analogous buffers were used, but they were spiked with mitragynine in acetonitrile to give a concentration of 20 µg/mL (organic content was kept below 1%). A 0.1 mL aliquot was collected from each buffer system at intervals of 0, 0.5, 6.0 and 24.0 h for determination of mitragynine. Mitragynine concentrations were expressed as percentage recovered. All experiments were performed in triplicates.

[4] = pKa determination, conventional UV spectrophotometer method; type: physicochemical; details: aqueous buffer
Source text: (§1) The instruments employed were UV spectrophotometer 8453 UV-Vis Diode Array (Agilent, Santa Clara, CA, USA), and Multiskan* GO Microplate Spectrophotometer (Thermo Scientific, Waltham, MA, USA). Data were captured using the Thermo Scientific SkanIt Software (Thermo Scientific, Version 3.2). Buffer Maker Software (version 1.0.1.55, BPP Marcin Borkowski, Marki, Poland,) was used for preparation of buffers with constant ionic strength for pKa determination. The pH-meter employed throughout the study was a PH 211 Hanna (Padova, Italy) equipped with a combined glass electrode.
(§2) pKa determination was carried out using conventional UV and microplate spectrophotometer methods. Acetic acid, tris base and sodium carbonate were used to prepare stable buffers in the pH range of 3 to 12. The buffers were prepared to give a final buffer molarity of 0.01 M. Either NaOH or HCl were used for pH adjustment of the various buffers, whose ionic strength was kept constant at 0.02 by addition of NaCl.
Five mL aliquots of buffer of various pH were transferred into separate tubes. To each tube, mitragynine stock solution in acetonitrile (4 mg/mL) was added to give a final drug concentration of 20 µg/mL. The percentage of organic content in final buffer preparation was kept below 1%. The prepared solutions were immediately scanned in the range of 200–400 nm.
(§3) Stock solution of mitragynine at 0.5 mg/mL was prepared in acetonitrile. Ten microliters of the stock solution was transferred into individual test tubes and diluted with 1.0 mL buffer of various pH to give a final concentration of 5 μg/mL. For absorbance spectrum analysis, 250 μL of the various pH buffer solutions spiked with drug were placed in a 96-well quartz UV-transparent microplate and immediately scanned in the range of 200–400 nm at a scanning rate of 200 nm/s in triplicates. The pKa was calculated with equation pKa = pH + log (d − dm/di − d), for basic compound, where di is the absorbance of the ionised species, d is the absorbance of the solution tested and dm is the absorbance of the neutral species.

[5] = parameters: method as in PMID 24841968; details: cited from earlier work
[6] = rats, cited from earlier work
mice = tested on: mice; parameters: method as in Macko et al, 15; details: mitragynine salt solution, ref Macko et al, 15; cited from earlier work
[7] = pKa determination, microplate spectrophotometer method; type: physicochemical; details: aqueous buffer
Source text: as §1, §2, §3

CC[C@@H]1CN2CCc3c([nH]c4cccc(OC)c34)[C@@H]2C[C@@H]1/C(=C\OC)C(=O)OC [mitragynine]
Concentration Found in SGF ([1]; 0 min): 18.72 ± 0.05 µg/mL | RD (relative difference vs time 0) in SGF ([1]; 10 min): −0.21% | Concentration Found in SGF ([1]; 10 min): 18.68 ± 0.23 µg/mL | RD (relative difference vs time 0) in SGF ([1]; 20 min): −20.00% | Concentration Found in SGF ([1]; 20 min): 14.98 ± 0.88 µg/mL | RD (relative difference vs time 0) in SGF ([1]; 30 min): −22.5% | Concentration Found in SGF ([1]; 30 min): 14.54 ± 0.58 µg/mL | Concentration Found in SGF ([1]; 40 min): 14.19 ± 0.37 µg/mL | RD (relative difference vs time 0) in SGF ([1]; 50 min): −24.19% | Concentration Found in SGF ([1]; 50 min): 14.11 ± 0.22 µg/mL | RD (relative difference vs time 0) in SGF ([1]; 60 min): −25.53% | Concentration Found in SGF ([1]; 60 min): 13.94 ± 0.20 µg/mL | stability in SGF (in words) ([1]; SGF pH ≈ 1.2, 37 °C): not stable | relative deviation / drug loss in SGF ([1]; from the 20 min time point onwards): greater than 20% | drug released (dissolution) ([2]; SGF pH 1.2 without enzymes): 80% | drug released (dissolution) ([2]; SIF pH 6.8 without enzymes): 22% | dose up to which no adverse reactions were reported (rats): 806 mg/kg | solubility at 48 h ([3]; aqueous buffer, thermodynamic from solid, buffer pH 4, 37 °C): 3500 ± 10 µg/mL (≈ 8780 µM) | solubility at 48 h ([3]; aqueous buffer, thermodynamic from solid, buffer pH 7, 37 °C): 88.9 ± 1.6 µg/mL (≈ 223 µM) | solubility at 48 h ([3]; aqueous buffer, thermodynamic from solid, buffer pH 9, 37 °C): 18.7 ± 0.4 µg/mL (≈ 46.9 µM) | solubility at 48 h ([3]; distilled water, thermodynamic from solid, water, 37 °C): 64.6 ± 1.2 µg/mL (≈ 162 µM) | solubility at 48 h ([3]; distilled water, water, 37 °C): < 100 µg/mL | pKa ([4]; UV Spectrophotometer, Day 1, read-out: pKa, interday repeatability): 8.18 | pKa ([4]; UV Spectrophotometer, Day 2, read-out: pKa, interday repeatability): 8.11 | pKa ([4]; UV Spectrophotometer, Day 3, read-out: pKa, interday repeatability): 8.15 | pKa ([4]; pH 7.52, target pH 7.6, actual pH 7.52, 20 µg/mL, 248 nm, read-out: pKa): 8.02 | pKa ([4]; pH 7.6, conventional UV method, mean over pH 7.6-9.0, read-out: pKa (Mean ± SD)): 8.11 ± 0.11 | pKa ([4]; pH 7.78, target pH 7.8, actual pH 7.78, 20 µg/mL, 248 nm, read-out: pKa): 8.16 | pKa ([4]; pH 7.96, target pH 8.0, actual pH 7.96, 20 µg/mL, 248 nm, read-out: pKa): 8.17 | pKa ([4]; pH 8.13, target pH 8.2, actual pH 8.13, 20 µg/mL, 248 nm, read-out: pKa): 8.18 | pKa ([4]; pH 8.34, target pH 8.4, actual pH 8.34, 20 µg/mL, 248 nm, read-out: pKa): 8.13 | pKa ([4]; pH 8.45, target pH 8.6, actual pH 8.45, 20 µg/mL, 248 nm, read-out: pKa): 8.05 | pKa ([4]; pH 8.71, target pH 8.8, actual pH 8.71, 20 µg/mL, 248 nm, read-out: pKa): 8.27 | pKa ([4]; pH 8.92, target pH 9.0, actual pH 8.92, 20 µg/mL, 248 nm, read-out: pKa): 7.93 | drug loss in SGF [5]: 26% | Cmax ([6]; oral dose 20–50 mg/kg): 0.4 to 2.3 µg/mL | half-life ([6]; oral dose 20–50 mg/kg): 3.8 to 9.4 h | absolute oral bioavailability [6]: ≈ 3% | dose up to which no adverse reactions were reported (mice): 920 mg/kg | pKa ([7]; Microplate Spectrophotometer, Day 1, read-out: pKa, interday repeatability): 8.18 | pKa ([7]; Microplate Spectrophotometer, Day 2, read-out: pKa, interday repeatability): 8.1 | pKa ([7]; Microplate Spectrophotometer, Day 3, read-out: pKa, interday repeatability): 8.12 | pKa ([7]; pH 7.55, target pH 7.6, actual pH 7.55, 5 µg/mL, 248 nm, read-out: pKa): 8.09 | pKa ([7]; pH 7.6, microplate method, mean over pH 7.6-9.0, read-out: pKa (Mean ± SD)): 8.08 ± 0.04 | pKa ([7]; pH 7.76, target pH 7.8, actual pH 7.76, 5 µg/mL, 248 nm, read-out: pKa): 8.11 | pKa ([7]; pH 7.94, target pH 8.0, actual pH 7.94, 5 µg/mL, 248 nm, read-out: pKa): 8.03 | pKa ([7]; pH 8.15, target pH 8.2, actual pH 8.15, 5 µg/mL, 248 nm, read-out: pKa): 8.09 | pKa ([7]; pH 8.32, target pH 8.4, actual pH 8.32, 5 µg/mL, 248 nm, read-out: pKa): 8.1 | pKa ([7]; pH 8.5, target pH 8.6, actual pH 8.50, 5 µg/mL, 248 nm, read-out: pKa): 8.03 | pKa ([7]; pH 8.66, target pH 8.8, actual pH 8.66, 5 µg/mL, 248 nm, read-out: pKa): 8.15 | pKa ([7]; pH 8.8, target pH 9.0, actual pH 8.80, 5 µg/mL, 248 nm, read-out: pKa): 8.06
